Laboratory results from patent US20080312160A1, “METHOD OF TREATING ENTERITIS, […], AND DIARRHEA FROM C. DIFFICILE WITH AN A2A ADENOSINE RECEPTOR AGONIST” (priority 2007, published 2008).

Legend:
[1] = test system: murine ileal loops injected with Clostridium difficile toxin A (TxA); test: TxA-induced enteritis in ligated murine ileal loops: loop weight and secretion volume; assay type: in vivo, mice
Experimental: For this study, 174 male Swiss mice, 25-30 g body weight, from the animal colony of the Federal University of Ceara were used. The animals received water and food ad libitum.
(§1) Mice were fasted overnight, but allowed access to water, and then anesthetized with ketamine and xylazine (60 and 5 mg/Kg intramuscularly, respectively). Through a midline laparotomy, one 4-cm ileal loop was ligated and injected with either 0.1 ml of PBS pH 7.4 (control) or buffer containing TxA (1-10 μg). The abdomen was closed, and the animals were allowed to regain consciousness. Three hours after administration of TxA, mice were sacrificed and the intestinal loops were removed. The loop length, weight, and fluid volume were recorded. A portion of the loop was frozen at −70° C. for measurement of myeloperoxidase (MPO) and ADA activities and TNF-α concentration. The remaining tissue was fixed in 10% formalin and embedded in paraffin, and sections were stained with hematoxylin and eosin for histological grading of ileal inflammation. Some mice were injected with ATL 313 ([…] final concentration) immediately followed by PBS or TxA (5 μg); another group was injected with ZM241385 (5 nM), the selective A2A AR antagonist, immediately followed by PBS or ATL 313 (5 nM)+TxA (5 μg) in the ileal loop. In another experiment, TxA (5 μg) was injected into the ileal loop, the abdomen was closed, and, 30 min later, the abdomen was reopened and ATL 313 (5 nM) administered.

[2] = test system: Clostridium difficile toxin A (TxA)-induced histological alterations; test: Histological grading of ileal inflammation, murine ileal loops; assay type: in vivo, mice; conditions: for median injury score: median(range)
Experimental: as §1
The severity of inflammation was scored in coded slides by a pathologist on a scale of 1 (mild) to 3 (severe) for epithelial damage, edema, and neutrophil infiltration.

[3] = test system: Clostridium difficile toxin A (TxA)-induced cell death; test: Cell death in intestinal sections (TUNEL method); assay type: in vivo, mice; conditions: ATL 313 + TxA
Experimental: as §1, with “administered. […]” for “administered.”

[4] = test system: Clostridium difficile toxin A-induced MPO activity; test: MPO assay in ileal tissue (neutrophil accumulation); assay type: in vivo, mice
Experimental: as §1, with “In another experiment, TxA (5 μg) was injected into the ileal loop, the abdomen was closed, and, 30 min later, the abdomen was reopened and ATL 313 (5 nM) administered.” left out
The extent of neutrophil accumulation in ileal tissue was estimated by measuring MPO activity assay. […] MPO activity in the resuspended pellet was assayed by measuring the change in absorbance at 450 nm using o-dianisidine dihydrochloride and 1% hydrogen peroxide. […]

[5] = test system: Clostridium difficile toxin A-induced TNF-α production; test: Quantification of TNF-α by ELISA in ileal tissue; assay type: in vivo, mice; conditions: ATL 313 + TxA vs TxA only
Experimental: as §1, with “In another experiment, TxA (5 μg) was injected into the ileal loop, the abdomen was closed, and, 30 min later, the abdomen was reopened and ATL 313 (5 nM) administered.” left out
Ileal tissue was harvested from animals in order to measure TNF-α concentration by enzyme-linked immunosorbent assay (ELISA). The results are expressed as pg/mL of TNF-α.

[6] = test system: Clostridium difficile toxin A-induced ADA activity; test: ADA activity in ileal tissue and ileal secretion; assay type: in vivo, mice; conditions: ATL 313 in TxA-challenged animals
Experimental: Mice were fasted overnight, but allowed access to water, and then anesthetized with ketamine and xylazine (60 and 5 mg/Kg intramuscularly, respectively). Through a midline laparotomy, one 4-cm ileal loop was ligated and injected with either 0.1 ml of PBS pH 7.4 (control) or buffer containing TxA (1-10 μg). The abdomen was closed, and the animals were allowed to regain consciousness. Three hours after administration of TxA, mice were sacrificed and the intestinal loops were removed. The loop length, weight, and fluid volume were recorded. A portion of the loop was frozen at −70° C. for measurement of myeloperoxidase (MPO) and ADA activities and TNF-α concentration. […]
The ADA assay is based on the measurement of ammonia produced during the deamination of adenosine by the method of Giusti (1974. Adenosine deaminase, p. 1092-1099. In H. U. Bergmeyer (Ed.), Methods of Enzymatic Analysis, vol. 2. Academic Press Inc., New York), with slight modifications. […] Following the addition of 600 μl of sodium hypochloride (11 mM) in 125 mM NaOH all tubes were again incubated at 37° C. for 30 min and read at 628 nm. The enzyme activity in the tissue and in the ileum contents was expressed as μmols of ammonium formed/mg of protein/hour and as μmols of ammonium formed/hour, respectively.

[7] = test system: C. difficile toxin A-induced inflammation and secretion in rabbit ileal loops; assay type: in vivo, New Zealand white rabbits; conditions: ATL 313 100 nM with alanyl-glutamine 25 mM; 5 hours
Experimental: Materials and Methods: New Zealand white rabbits weighing about 2 kg are fasted overnight. Under anesthesia with ketamine (60-80 mg/kg) and xylazine (5-10 mg/kg) administered intramuscularly, a midline abdominal incision is performed to expose the small bowel. After the ileum is flushed, four-cm loops are ligated using double ties with a 1 cm interval between loops. Each of the control loops is injected intraluminally with 1 mL solution of PBS with either C. difficile toxin A (toxin A) (Techlab, Blacksburg, Va.) at 10 μg/mL. Loops from another set of rabbits are treated with the adenosine A2A agonists, JMR 193 (ATL 193) (10 nM, 100 nM, or 1 uM doses) or ATL 146e ([…], 100 nM, 1 uM doses) immediately before the enterotoxin is administered. In addition a rabbit is treated with A2A agonist, ATL 313 (100 nM), alone and another rabbit treated with ATL 313 with alanyl-glutamine (25 mM). After 5 hours of incubation, the ligated small intestinal loops are removed. The length of each ligated ileal segment is measured and intraluminal fluid was quantified. Volume to length ratio, V/L (mL/cm), per loop is calculated. Samples of intestinal stained with hematoxylin-eosin and graded from 0 (none) to 4 (worst) based on the degree of mucosal disruption, increase in cellularity and intensity of vascular congestion.

[8] = ATL 313 5 nM alone, absence of TxA
[9] = ATL 313 5 nM in loop immediately followed by TxA 5 μg, 3 h, vs TxA alone

**Q.** For `COC(=O)N1CCC(CC#Cc2nc(N)c3ncn(C4OC(C(=O)NC5CC5)C(O)C4O)c3n2)CC1` (stereo not shown) [ATL 313, 4-{3-[6-Amino-9-(5-cyclopropylcarbamoyl-3,4-dihydroxy-tetrahydro-furan-2-yl)-9H-purin-2-yl]-prop-2-ynyl}-piperidine-1-carboxylic acid methyl ester], which “secretion volume/ileal loop length ratio” value [1, 8] is on record?
**A.** The value was “did not alter”.

**Q.** And the “weight/ileal loop length ratio” value [1, 8]?
**A.** The value was “did not alter”.

**Q.** And the “weight/ileal loop length ratio” value ([1]; ATL 313 5 nM given 30 min after TxA 5 μg)?
**A.** Its value is 28.3 ± 1.4 mg/cm.

**Q.** What about the “secretion volume/ileal loop length ratio” value [1, 9] of the same molecule?
**A.** The value was “significantly (P<0.05) reduced”.

**Q.** What about the “weight/ileal loop length ratio” value [1, 9] of the same molecule?
**A.** The value was “significantly (P<0.05) reduced”.

**Q.** And the histological injury score ([2]; ATL 313 30 min after injection of TxA 5 μg)?
**A.** Its histological injury score is 1(0-2).

**Q.** And the median injury score ([2]; ATL 313 + TxA 5 μg/loop)?
**A.** Its median injury score is 1(0-2).

**Q.** What about the median injury score ([2]; compound alone, no TxA) of the same molecule?
**A.** Its median injury score is 0(0-0).

**Q.** And the mucosal cell death [3]?
**A.** The mucosal cell death was “reduced number for cell death similar to the level of PBS control”.

**Q.** And the “MPO activity in ileal tissue” value ([4]; ATL 313 5 nM alone, PBS=1.6±0.6)?
**A.** The value was 2.1±0.2 U/mg.

**Q.** What about the “MPO activity in ileal tissue” value ([4]; ATL 313 5 nM then TxA 5 μg) of the same molecule?
**A.** The value was 1.0±0.6 U/mg.

**Q.** And the “TNF-α production in ileal tissue” value [5]?
**A.** The value was “significantly reduced (P<0.05)”.

**Q.** And the “ADA activity in ileal secretion” value [6]?
**A.** The value was “significantly reduced (P<0.05)”.

**Q.** What about the “ADA activity in ileal tissue” value [6] of the same molecule?
**A.** Its value is “significantly reduced (P<0.05)”.

**Q.** And the “toxin A-induced inflammation” value [7]?
**A.** The value was “improved inflammation”.

**Q.** And the “toxin A-induced secretion (volume to length ratio)” value [7]?
**A.** The value was “dramatically improved secretion”.
